Laboratory results as given in PubChem BioAssay AID256 (DTP/NCI, 2004).
Values joined by “and” are separate entries in the source; they are usually repeats but may differ in a detail not shown here. Equal entries are not always repeated. Inconclusive results and toxic doses are left out.

Test system: CD2F1 mice, L1210 leukemia ip, survival T/C
Test: NCI In Vivo Anticancer Drug Screen. Data for tumor model L1210 Leukemia (intraperitoneal) in CD2F1 (CDF1) mice
Conditions: higher = longer survival
Procedure, shortened: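 Each value reflects a quotient of treated over vehicle control outcomes in mice with a transplanted tumor.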

[1] = endpoint: mean survival time, dose: 25.0 mg/kg/injection, schedule: Q04DX003 (ip), vehicle: saline
[2] = endpoint: mean survival time, dose: 50.0 mg/kg/injection, schedule: Q04DX003 (ip), vehicle: saline
[3] = endpoint: mean survival time, dose: 100.0 mg/kg/injection, schedule: Q04DX003 (ip), vehicle: saline
[4] = endpoint: mean survival time, dose: 100.0 mg/kg/injection, schedule: Q01DX009 (ip), vehicle: saline with Tween-80
[5] = endpoint: mean survival time, dose: 200.0 mg/kg/injection, schedule: Q01DX009 (ip), vehicle: saline with Tween-80
[6] = endpoint: mean survival time, dose: 400.0 mg/kg/injection, schedule: Q01DX009 (ip), vehicle: saline with Tween-80
[7] = endpoint: mean survival time, dose: 200.0 mg/kg/injection, schedule: Q04DX003 (ip), vehicle: saline
[8] = endpoint: mean survival time, dose: 400.0 mg/kg/injection, schedule: Q04DX003 (ip), vehicle: saline
[9] = endpoint: mean survival time, dose: 100.0 mg/kg/injection, schedule: Q04DX002 (ip), vehicle: saline with Tween-80
[10] = endpoint: mean survival time, dose: 200.0 mg/kg/injection, schedule: Q04DX002 (ip), vehicle: saline with Tween-80
[11] = endpoint: mean survival time, dose: 100.0 mg/kg/injection, schedule: Q04DX003 (ip), vehicle: saline with Tween-80
[12] = endpoint: mean survival time, dose: 200.0 mg/kg/injection, schedule: Q04DX003 (ip), vehicle: saline with Tween-80
[13] = endpoint: mean survival time, dose: 400.0 mg/kg/injection, schedule: Q04DX003 (ip), vehicle: saline with Tween-80
[14] = endpoint: mean survival time, dose: 25.0 mg/kg/injection, schedule: Q01DX009 (ip), vehicle: saline with Tween-80
[15] = endpoint: mean survival time, dose: 50.0 mg/kg/injection, schedule: Q01DX009 (ip), vehicle: saline with Tween-80
[16] = endpoint: mean survival time, dose: 12.5 mg/kg/injection, schedule: Q01DX009 (ip), vehicle: saline
[17] = endpoint: mean survival time, dose: 25.0 mg/kg/injection, schedule: Q01DX009 (ip), vehicle: saline

SMILES: O=C1C=CN(C2OC(COC(=O)c3ccccc3)C(O)C2O)C(=O)C1 (stereo not drawn)
- T/C (endpoint: median survival time, dose: 67.0 mg/kg/injection, schedule: Q01DX009 (ip), vehicle: saline + Tween-80 + alcohol): 168 % of control
- T/C (endpoint: median survival time, dose: 100.0 mg/kg/injection, schedule: Q01DX009 (ip), vehicle: saline + Tween-80 + alcohol): 169 % of control
- T/C (endpoint: median survival time, dose: 150.0 mg/kg/injection, schedule: Q01DX009 (ip), vehicle: saline + Tween-80 + alcohol): 165 % of control
- T/C (endpoint: median survival time, dose: 225.0 mg/kg/injection, schedule: Q01DX009 (ip), vehicle: saline + Tween-80 + alcohol): 161 % of control

SMILES: CCC/C=C/C=C/C(=O)OC1/C(=C/C(=O)OC)CC2CC(C(C)O)OC(=O)CC(O)CC3CC(OC(C)=O)C(C)(C)C(O)(CC4C/C(=C/C(=O)OC)CC(/C=C/C(C)(C)C1(O)O2)O4)O3 (stereo not drawn)
- T/C (endpoint: median survival time, dose: 18.75 micrograms/kg/injection, schedule: Q01DX009 (ip), vehicle: saline + alcohol): 113 % of control and 117 % of control
- T/C (endpoint: median survival time, dose: 37.5 micrograms/kg/injection, schedule: Q01DX009 (ip), vehicle: saline + alcohol): 124 % of control
- T/C (endpoint: median survival time, dose: 150.0 micrograms/kg/injection, schedule: Q01DX009 (ip), vehicle: saline + alcohol): 151 % of control

SMILES: Oc1c(Cl)c(Cl)c(Cl)c(Cl)c1Cl (tested in a mixture with another compound)
- T/C [1]: 96 % of control
- T/C [2]: 103 % of control
- T/C [3]: 96 % of control

SMILES: CCCC(C#N)(CCC)C(=O)OCC
- T/C (endpoint: mean survival time, dose: 12.5 mg/kg/injection, schedule: Q01DX001 (ip), vehicle: Klucel (hydroxypropylcellulose) (HPC)): 102 % of control
- T/C (endpoint: mean survival time, dose: 25.0 mg/kg/injection, schedule: Q01DX001 (ip), vehicle: Klucel (hydroxypropylcellulose) (HPC)): 99 % of control
- T/C (endpoint: mean survival time, dose: 50.0 mg/kg/injection, schedule: Q01DX001 (ip), vehicle: Klucel (hydroxypropylcellulose) (HPC)): 99 % of control

SMILES: O=C(/C(=N\N=C\c1c(O)ccc2ccccc12)c1ccccc1)c1ccccc1
- T/C [4]: 93 % of control
- T/C [5]: 90 % of control
- T/C [6]: 92 % of control

SMILES: CCN(CC)N1C(=O)[N+](CC)(CC)N=C1[O-]
- T/C [3]: 102 % of control
- T/C [7]: 95 % of control
- T/C [8]: 101 % of control

SMILES: O=S1(=O)CC2(OCCO2)C1Cl (stereo not drawn)
- T/C [9]: 95 % of control
- T/C [10]: 91 % of control

SMILES: CC(=O)n1cc(CS)c(=O)[nH]c1=O
- T/C (endpoint: mean survival time, dose: 5.0 mg/kg/injection, schedule: Q01DX001 (ip), vehicle: saline): 105 % of control
- T/C (endpoint: mean survival time, dose: 10.0 mg/kg/injection, schedule: Q01DX001 (ip), vehicle: saline): 98 % of control
- T/C (endpoint: mean survival time, dose: 20.0 mg/kg/injection, schedule: Q01DX001 (ip), vehicle: saline): 105 % of control
- T/C (endpoint: mean survival time, dose: 40.0 mg/kg/injection, schedule: Q01DX001 (ip), vehicle: saline): 105 % of control
- T/C (endpoint: mean survival time, dose: 80.0 mg/kg/injection, schedule: Q01DX001 (ip), vehicle: saline): 105 % of control

SMILES: O=[N+]([O-])c1ccc(Cl)c(S(=O)O)c1
- T/C (endpoint: mean survival time, dose: 100.0 mg/kg/injection, schedule: Q01DX009 (ip), vehicle: saline): 95 % of control
- T/C [3]: 110 % of control
- T/C (endpoint: mean survival time, dose: 200.0 mg/kg/injection, schedule: Q01DX009 (ip), vehicle: saline): 106 % of control
- T/C [7]: 102 % of control
- T/C (endpoint: mean survival time, dose: 400.0 mg/kg/injection, schedule: Q01DX009 (ip), vehicle: saline): 103 % of control
- T/C [8]: 106 % of control

SMILES: O/N=C/C(O)(c1ccccc1)c1ccccc1
- T/C [9]: 107 % of control
- T/C [10]: 100 % of control

SMILES: O=C(O)c1cc([N+](=O)[O-])cc([N+](=O)[O-])c1
- T/C [11]: 97 % of control
- T/C [12]: 97 % of control
- T/C [13]: 101 % of control

SMILES: CCCCCc1ccc(C(C)=O)cc1
- T/C [4]: 103 % of control
- T/C [5]: 103 % of control
- T/C [6]: 88 % of control

SMILES: N#CC(Cl)(C#N)c1ccc(C(Cl)(C#N)C#N)cc1
- T/C [14]: 101 % of control
- T/C [15]: 104 % of control
- T/C [4]: 98 % of control and 101 % of control

SMILES: C/C(=N/O)c1cc(CN(C)C)oc1C
- T/C [15]: 92 % of control
- T/C (endpoint: mean survival time, dose: 100.0 mg/kg/injection, schedule: Q01DX001 (ip), vehicle: saline with Tween-80): 113 % of control
- T/C [4]: 90 % of control
- T/C (endpoint: mean survival time, dose: 200.0 mg/kg/injection, schedule: Q01DX001 (ip), vehicle: saline with Tween-80): 101 % of control
- T/C [5]: 91 % of control

SMILES: S=C(S)Nc1cccc2ccccc12
- T/C [4]: 93 % of control
- T/C [5]: 97 % of control
- T/C [6]: 93 % of control

SMILES: CC[C@@H](O)C[C@H]1CCC[C@@]2(C[C@@H]3OC(=O)/C=C/[C@@](C)(O)[C@@H](O)[C@H](C)[C@@H](O)[C@H](OC4CCC(N(C)C)C(C)O4)[C@@H](O)[C@](C)(O)CCCCC/C=C/[C@@H]4CC(C)(C)O[C@@]4(O)C[C@H](O2)[C@H]3C)O1 (stereo partly drawn)
- T/C (endpoint: mean survival time, dose: 0.25 mg/kg/injection, schedule: Q01DX009 (ip), vehicle: saline): 109 % of control

SMILES: O=C(CC(O)(C(F)(F)F)C(F)(F)F)c1cccc(Cl)c1
- T/C [4]: 107 % of control
- T/C [11]: 105 % of control
- T/C [5]: 103 % of control
- T/C [12]: 105 % of control
- T/C [6]: 119 % of control
- T/C [13]: 110 % of control

SMILES: Cc1csc(NC(=O)Nc2ccc(F)cc2[N+](=O)[O-])n1
- T/C [16]: 103 % of control
- T/C [17]: 112 % of control
- T/C (endpoint: mean survival time, dose: 50.0 mg/kg/injection, schedule: Q01DX009 (ip), vehicle: saline): 103 % of control

SMILES: CCOC(=O)C(OC(=O)CC)c1ccccc1 (stereo not drawn)
- T/C [4]: 96 % of control
- T/C [5]: 100 % of control
- T/C [6]: 102 % of control

SMILES: Cc1ccc(NC(=O)Oc2cc(C)c(Cl)cc2C)cc1C
- T/C [15]: 100 % of control
- T/C [4]: 100 % of control
- T/C [5]: 92 % of control

SMILES: Clc1c(Cl)c(Cl)[c]([Hg][c]2c(Cl)c(Cl)c(Cl)c(Cl)c2Cl)c(Cl)c1Cl
- T/C [14]: 100 % of control
- T/C [1]: 103 % of control
- T/C [15]: 103 % of control
- T/C [2]: 97 % of control
- T/C [4]: 97 % of control
- T/C [11]: 96 % of control
- T/C [3]: 97 % of control

SMILES: CC(=O)Oc1cc2c3c(c1)CCCN3CCC2
- T/C (endpoint: mean survival time, dose: 5.0 mg/kg/injection, schedule: Q04DX003 (ip), vehicle: saline): 102 % of control
- T/C (endpoint: mean survival time, dose: 6.25 mg/kg/injection, schedule: Q01DX009 (ip), vehicle: saline with Tween-80): 101 % of control
- T/C (endpoint: mean survival time, dose: 12.5 mg/kg/injection, schedule: Q01DX009 (ip), vehicle: saline with Tween-80): 96 % of control

SMILES: O=C(O)C(Cl)(Br)C(Cl)c1ccccc1 (stereo not drawn)
- T/C [11]: 100 % of control
- T/C [12]: 102 % of control
- T/C [13]: 103 % of control

SMILES: O=C(c1ccc(F)cc1)c1ccc([N+](=O)[O-])cc1
- T/C [4]: 103 % of control
- T/C [5]: 102 % of control
- T/C [6]: 97 % of control

SMILES: C[CH2][Sn]([CH2]C)([O]S(=O)(=O)CC12CCC(CC1=O)C2(C)C)[O]S(=O)(=O)CC12CCC(CC1=O)C2(C)C
- T/C (endpoint: mean survival time, dose: 1.56 mg/kg/injection, schedule: Q01DX009 (ip), vehicle: saline): 94 % of control
- T/C (endpoint: mean survival time, dose: 3.12 mg/kg/injection, schedule: Q01DX009 (ip), vehicle: saline): 94 % of control
- T/C (endpoint: mean survival time, dose: 6.25 mg/kg/injection, schedule: Q01DX009 (ip), vehicle: saline): 103 % of control
- T/C [16]: 113 % of control
- T/C [17]: 111 % of control

SMILES: O=C(O)c1cccc([N+](=O)[O-])c1C(=O)c1ccccc1
- T/C [4]: 107 % of control
- T/C [5]: 102 % of control

SMILES: NC(=S)N/N=C\c1nccc2c(C(F)(F)C(F)(F)C(F)(F)F)cccc12
- T/C [9]: 93 % of control
- T/C [10]: 96 % of control
- T/C (endpoint: mean survival time, dose: 400.0 mg/kg/injection, schedule: Q04DX002 (ip), vehicle: saline with Tween-80): 96 % of control

SMILES: c1ccc2sc(NN=c3c4ccccc4sc4ccccc34)nc2c1
- T/C (endpoint: mean survival time, dose: 75.0 mg/kg/injection, schedule: Q01DX001 (ip), vehicle: other): 107 % of control
- T/C (endpoint: mean survival time, dose: 150.0 mg/kg/injection, schedule: Q01DX001 (ip), vehicle: other): 100 % of control
- T/C (endpoint: mean survival time, dose: 300.0 mg/kg/injection, schedule: Q01DX001 (ip), vehicle: other): 94 % of control

SMILES: Nc1cc(=O)c2ncn(C3OC(CO)C(O)C3O)c2[nH]1 (stereo not drawn)
- T/C (endpoint: mean survival time, dose: 25.0 mg/kg/injection, schedule: Q01DX005 (ip), vehicle: other): 98 % of control
- T/C (endpoint: mean survival time, dose: 50.0 mg/kg/injection, schedule: Q01DX005 (ip), vehicle: other): 93 % of control
- T/C (endpoint: mean survival time, dose: 100.0 mg/kg/injection, schedule: Q01DX005 (ip), vehicle: other): 87 % of control
- T/C (endpoint: mean survival time, dose: 200.0 mg/kg/injection, schedule: Q01DX005 (ip), vehicle: other): 106 % of control
- T/C (endpoint: mean survival time, dose: 400.0 mg/kg/injection, schedule: Q01DX005 (ip), vehicle: other): 103 % of control

SMILES: Cc1ccc(CCl)cc1
- T/C [15]: 115 % of control
- T/C [4]: 92 % of control
